# In US8273774B2, “Phenoxypyridinylamide compounds” (AstraZeneca AB, priority 2008, dated 2012):
# Molecular target: recombinant Human Phosphodiesterase B2 (PDE4B2) (Homo sapiens, UniProt Q07343)
# Assay: Human Phosphodiesterase B2 Radiometric Assay
# Format: biochemical
# Conditions: 0.1 μg/mL recombinant PDE4B2; preincubated at 30 C for 30 min; [3H]cyclic AMP 8 nM, stopped after 20 min; yttrium silicate SPA beads; read-out: PDE4B2 pIC50 (converted)
# Procedure, shortened: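 Compounds preincubated 30 min at 30 C with 0.1 μg/mL recombinant PDE4B2 in 50 mM HEPES pH 7.5, 8.3 mM MgCl2, 1.7 mM EGTA, 0.01% Brij 35.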
# Sequence of recombinant Human Phosphodiesterase B2 (PDE4B2) (Q07343 1-564 isoform Q07343-2): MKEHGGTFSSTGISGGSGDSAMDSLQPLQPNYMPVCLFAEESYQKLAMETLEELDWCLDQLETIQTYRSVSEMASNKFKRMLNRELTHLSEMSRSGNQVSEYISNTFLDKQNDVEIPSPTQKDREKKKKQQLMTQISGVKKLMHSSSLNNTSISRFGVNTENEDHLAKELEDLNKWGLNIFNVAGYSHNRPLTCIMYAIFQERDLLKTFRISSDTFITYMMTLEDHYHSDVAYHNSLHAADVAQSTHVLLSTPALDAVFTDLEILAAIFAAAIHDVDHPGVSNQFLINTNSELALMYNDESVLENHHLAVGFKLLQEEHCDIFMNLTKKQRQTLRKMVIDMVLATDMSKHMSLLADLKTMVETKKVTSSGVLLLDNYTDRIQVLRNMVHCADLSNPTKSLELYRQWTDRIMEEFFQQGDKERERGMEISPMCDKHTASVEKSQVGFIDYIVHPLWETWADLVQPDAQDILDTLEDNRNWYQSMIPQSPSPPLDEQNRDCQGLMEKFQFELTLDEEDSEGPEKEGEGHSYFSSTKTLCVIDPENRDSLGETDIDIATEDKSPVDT
row,Compound,IC50
1,"Cc1cc(C(=O)N[C@H]2CC[C@@H](NC(=O)c3cc(F)cnc3Oc3cccc(-c4ccc(CCCN5C[C@@H](C)N[C@@H](C)C5)cc4)c3)CC2)nn1C [Example 81, N-((1s,4s)-4-(1,5-dimethyl-1H-pyrazole-3-carboxamido)cyclohexyl)-2-(4′-(3-((3S,5R)-3,5-dimethylpiperazin-1-yl)propyl)biphenyl-3-yloxy)-5-fluoronicotinamide]",0.0316 nM
2,"Cc1nc(C(=O)N[C@H]2CC[C@@H](NC(=O)c3cc(F)cnc3Oc3cccc(-c4ccc(CCCN5CCNCC5)cc4)c3)CC2)cs1 [Example 74, N-((1s,4s)-4-(5-fluoro-2-(4′-(3-(piperazin-1-yl)propyl)biphenyl-3-yloxy)nicotinamido)cyclohexyl)-2-methylthiazole-4-carboxamide]",0.0251 nM
3,"Cc1cc(C(=O)N[C@H]2CC[C@@H](NC(=O)c3cc(F)cnc3Oc3cccc(-c4ccc(O)c(CN5CCN(C(C)C)CC5)c4)c3)CC2)nn1C [Example 77, N-((1s,4s)-4-(1,5-dimethyl-1H-pyrazole-3-carboxamido)cyclohexyl)-5-fluoro-2-(4′-hydroxy-3′-((4-isopropylpiperazin-1-yl)methyl)biphenyl-3-yloxy)nicotinamide]",0.0631 nM
4,"Cc1ccc(O)c(C(=O)N[C@H]2CC[C@@H](NC(=O)c3cc(F)cnc3Oc3cccc(-c4ccc(O)cc4CN4CCCOCC4)c3)CC2)c1 [Example 16, 2-(2′-((1,4-oxazepan-4-yl)methyl)-4′-hydroxybiphenyl-3-yloxy)-5-fluoro-N-((1s,4s)-4-(2-hydroxy-5-methylbenzamido)cyclohexyl)nicotinamide]",0.0316 nM
5,"Cc1cccc2nc(C(=O)N[C@H]3CC[C@@H](NC(=O)c4cc(F)cnc4Oc4cccc(-c5ccc(CN6CCCC6)cc5)c4)CC3)cn12 [Example 50, N-((1s,4s)-4-(5-fluoro-2-(4′-(pyrrolidin-1-ylmethyl)biphenyl-3-yloxy)nicotinamido)cyclohexyl)-5-methylimidazo[1,2-a]pyridine-2-carboxamide]",0.316 nM
6,"Cc1cccc2nc(C(=O)N[C@H]3CC[C@@H](NC(=O)c4cc(F)cnc4Oc4cccc(-c5ccc(CN6CCC(N7CCCC7)CC6)cc5)c4)CC3)cn12 [Example 109, N-((1s,4s)-4-(5-fluoro-2-(4′-((4-(pyrrolidin-1-yl)piperidin-1-yl)methyl)biphenyl-3-yloxy)nicotinamido)cyclohexyl)-5-methylimidazo[1,2-a]pyridine-2-carboxamide]",0.0631 nM
7,"Cc1nc(C(=O)N[C@H]2CC[C@@H](NC(=O)c3cc(F)cnc3Oc3cccc(-c4ccc(CN5CCNCC5)cc4O)c3)CC2)cs1 [Example 57, N-((1s,4s)-4-(5-fluoro-2-(2′-hydroxy-4′-(piperazin-1-ylmethyl)biphenyl-3-yloxy)nicotinamido)cyclohexyl)-2-methylthiazole-4-carboxamide]",0.0631 nM
8,"Cc1cccc2nc(C(=O)N[C@H]3CC[C@@H](NC(=O)c4cc(F)cnc4Oc4cccc(-c5ccc(O)c(CN6C[C@@H](C)N[C@@H](C)C6)c5)c4)CC3)cn12 [Example 85, N-((1s,4s)-4-(2-(3′-(((3S,5R)-3,5-dimethylpiperazin-1-yl)methyl)-4′-hydroxybiphenyl-3-yloxy)-5-fluoronicotinamido)cyclohexyl)-5-methylimidazo[1,2-a]pyridine-2-carboxamide]",0.0631 nM
9,"Cn1ccc(C(=O)N[C@H]2CC[C@@H](NC(=O)c3cc(F)cnc3Oc3cccc(-c4ccc(O)cc4CN4CCOCC4)c3)CC2)n1 [Example 49, 5-fluoro-2-(4′-hydroxy-2′-(morpholinomethyl)biphenyl-3-yloxy)-N-((1s,4s)-4-(1-methyl-1H-pyrazole-3-carboxamido)cyclohexyl)nicotinamide]",0.0251 nM
10,"C[C@@H]1CN(CCCc2ccc(-c3cccc(Oc4ncc(F)cc4C(=O)N[C@H]4CC[C@@H](NC(=O)c5cscn5)CC4)c3)cc2)C[C@H](C)N1 [Example 155, N-((1s,4s)-4-(2-(4′-(3-((3S,5R)-3,5-dimethylpiperazin-1-yl)propyl)biphenyl-3-yloxy)-5-fluoronicotinamido)cyclohexyl)thiazole-4-carboxamide]",0.0398 nM
11,"Cc1ccc(O)c(CN[C@H]2CC[C@@H](NC(=O)c3cc(F)cnc3Oc3cccc(-c4ccc(O)cc4CN4CCOCC4)c3)CC2)c1 [Example 7, 5-fluoro-2-(4′-hydroxy-2′-(morpholinomethyl)biphenyl-3-yloxy)-N-((1s,4s)-4-(2-hydroxy-5-methylbenzylamino)cyclohexyl)nicotinamide]",6.31 nM
12,"C[C@@H]1CN(Cc2cc(-c3cccc(Oc4ncc(F)cc4C(=O)N[C@H]4CC[C@@H](NC(=O)c5cn6c(n5)CCCC6)CC4)c3)ccc2O)C[C@H](C)N1 [Example 91, N-((1s,4s)-4-(2-(3′-(((3S,5R)-3,5-dimethylpiperazin-1-yl)methyl)-4′-hydroxybiphenyl-3-yloxy)-5-fluoronicotinamido)cyclohexyl)-5,6,7,8-tetrahydroimidazo[1,2-a]pyridine-2-carboxamide]",0.251 nM
13,"Cc1cccc2nc(C(=O)N[C@H]3CC[C@@H](NC(=O)c4cc(F)cnc4Oc4cccc(-c5ccc(CN(C)C)cc5)c4)CC3)cn12 [Example 47, N-((1s,4s)-4-(2-(4′-((dimethylamino)methyl)biphenyl-3-yloxy)-5-fluoronicotinamido)cyclohexyl)-5-methylimidazo[1,2-a]pyridine-2-carboxamide]",0.794 nM

# The remaining lines, values ahead:
row,IC50,Compound
1,0.0501 nM,"Cc1cc(C(=O)N[C@H]2CC[C@@H](NC(=O)c3cc(F)cnc3Oc3cccc(-c4ccc(CCN5CCN(C)CC5)cc4)c3)CC2)nn1C [Example 167, N-((1s,4s)-4-(1,5-Dimethyl-1H-pyrazole-3-carboxamido)cyclohexyl)-5-fluoro-2-(4′-(2-(4-methylpiperazin-1-yl)ethyl)biphenyl-3-yloxy)nicotinamide]"
2,0.02 nM,"O=C(N[C@H]1CC[C@@H](NC(=O)c2cnn3cccnc23)CC1)c1cc(F)cnc1Oc1cccc(-c2ccc(CN3CCSCC3)cc2CN2CCOCC2)c1 [Example 197, N-((1s,4s)-4-(5-fluoro-2-(2′-(morpholinomethyl)-4′-(thiomorpholinomethyl)biphenyl-3-yloxy)nicotinamido)cyclohexyl)pyrazolo[1,5-a]pyrimidine-3-carboxamide]"
3,0.02 nM,"C[C@@H]1CN(Cc2ccc(-c3cccc(Oc4ncc(F)cc4C(=O)N[C@H]4CC[C@@H](NC(=O)c5cc(C(F)(F)F)n(C)n5)CC4)c3)c(CN3CCSCC3)c2)C[C@H](C)N1 [Example 191, 2-(4′-(((3S,5R)-3,5-dimethylpiperazin-1-yl)methyl)-2′-(thiomorpholinomethyl)biphenyl-3-yloxy)-5-fluoro-N-((1s,4s)-4-(1-methyl-5-(trifluoromethyl)-1H-pyrazole-3-carboxamido)cyclo-hexyl)nicotinamide]"
4,0.0794 nM,"CN1CCCN(CCc2ccc(-c3cccc(Oc4ncc(F)cc4C(=O)N[C@H]4CC[C@@H](NC(=O)c5cc6n(n5)CCCC6)CC4)c3)cc2)CC1 [Example 171, N-((1s,4s)-4-(5-Fluoro-2-(4′-(2-(4-methyl-1,4-diazepan-1-yl)ethyl)biphenyl-3-yloxy)nicotinamido)cyclohexyl)-4,5,6,7-tetrahydropyrazolo[1,5-a]pyridine-2-carboxamide]"
5,0.2 nM,"O=C(NC1CCC(NC(=O)c2cc(F)cnc2Oc2cccc(-c3ccc(CCCN4CCNCC4)cc3)c2)CC1)c1nc(CO)cs1 (centres unmarked) [Example 187, N-((1s,4s)-4-(5-Fluoro-2-(4′-(3-(piperazin-1-yl)propyl)biphenyl-3-yloxy)nicotinamido)cyclohexyl)-4-(hydroxymethyl)thiazole-2-carboxamide]"
6,0.0398 nM,"O=C(N[C@H]1CC[C@@H](NC(=O)c2cc(F)cnc2Oc2cccc(-c3ccc(CCN4CCNCC4)cc3)c2)CC1)c1cnc2ccccc2n1 [Example 186, N-((1s,4s)-4-(5-Fluoro-2-(4′-(2-(piperazin-1-yl)ethyl)biphenyl-3-yloxy)nicotinamido)cyclohexyl)quinoxaline-2-carboxamide]"
7,0.02 nM,"C[C@@H]1CN(Cc2ccc(-c3cccc(Oc4ncc(F)cc4C(=O)N[C@H]4CC[C@@H](NC(=O)c5cccc6[nH]cnc56)CC4)c3)c(CN3CCOC[C@@H]3C)c2)C[C@H](C)N1 [Example 195, N-((1s,4s)-4-(2-(4′-(((3S,5R)-3,5-dimethylpiperazin-1-yl)methyl)-2′-(((S)-3-methylmorpholino)methyl)biphenyl-3-yloxy)-5-fluoronicotmamido)cyclohexyl)-1H-benzo[d]imidazole-4-carboxamide]"
8,0.0501 nM,"Cc1nc(C(=O)N[C@H]2CC[C@@H](NC(=O)c3cc(F)cnc3Oc3cccc(-c4ccc(CCN5CCNCC5)cc4)c3)CC2)cs1 [Example 177, N-((1s,4s)-4-(5-Fluoro-2-(4′-(2-(piperazin-1-yl)ethyl)biphenyl-3-yloxy)nicotinamido)cyclohexyl)-2-methylthiazole-4-carboxamide]"
9,0.0251 nM,"Cc1cc(C)n2ncc(C(=O)N[C@H]3CC[C@@H](NC(=O)c4cc(F)cnc4Oc4cccc(-c5ccc(CN6C[C@@H](C)N[C@@H](C)C6)cc5CN5CCSCC5)c4)CC3)c2n1 [Example 193, N-((1s,4s)-4-(2-(4′-(((3S,5R)-3,5-dimethylpiperazin-1-yl)methyl)-2′-(thiomorpholinomethyl)biphenyl-3-yloxy)-5-fluoronicotinamido)cyclohexyl)-5,7-dimethylpyrazolo[1,5-a]pyrimidine-3-carboxamide]"
10,0.1 nM,"C[C@@H]1CN(CCCc2cccc(-c3cccc(Oc4ncc(F)cc4C(=O)N[C@H]4CC[C@@H](NC(=O)c5cc6n(n5)CCCC6)CC4)c3)c2)C[C@H](C)N1 [Example 174, N-((1s,4s)-4-(2-(3′-(3-((3S,5R)-3,5-Dimethylpiperazin-1-yl)propyl)biphenyl-3-yloxy)-5-fluoronicotinamido)cyclohexyl)-4,5,6,7-tetrahydropyrazolo[1,5-a]pyridine-2-carboxamide]"
